According to patent US20260042764A1, “COMPOSITIONS AND METHODS FOR INHIBITION OF KRAS” (TheRas, Inc., priority 2022, published 2026):

Molecular target: T1, Avi-KRAS G12C (2-169) GTP/RAF1 RBD-3xFLAG (51-131) (Homo sapiens, UniProt P01116, G12C)
T1 construct: Avi-KRAS G12C (2-169)
Experiment: Raf1-KRAS G12C-GTP disruption HTRF assay (Biological Example 3)
Type: binding
Details: KRAS G12C, GTP-loaded
Method in brief: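 50 nM Avi-KRAS (2-169) GTP/RAF1 RBD complex; 75 nM RBD-Avi; pH 7.5 Tris buffer, 10% DMSO; cpd 30 μM top, 3x, 10 pts; 1 h RT, 700 rpm; HTRF, % of DMSO.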

T1 sequence (P01116 2-169 isoform P01116-2 G12C): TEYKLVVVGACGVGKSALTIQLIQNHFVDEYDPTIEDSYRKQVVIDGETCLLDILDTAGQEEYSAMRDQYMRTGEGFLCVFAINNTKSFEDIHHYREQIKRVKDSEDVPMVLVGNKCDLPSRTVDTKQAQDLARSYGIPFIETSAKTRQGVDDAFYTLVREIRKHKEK

| SMILES | IC50 |
| --- | --- |
| CCN(c1nc(OC[C@@]23CCCN2C[C@H](F)C3)nc2c(F)c(-c3ccc(F)c4sc(N)c(C#N)c34)c(C(F)(F)F)cc12)[C@H]1CCN(C(=O)N(C)C)[C@@H]1C (atropisomer, axis not shown) [Compound 749] | ≤ 100 nM |
| CCN(c1nc(OC[C@@]23CCCN2C[C@H](F)C3)nc2c(F)c(-c3ccc(F)c4sc(N)c(C#N)c34)c(C(F)(F)F)cc12)[C@H]1CCN(C(=O)N2CCN(C(C)=O)CC2)C1 (atropisomer, axis not shown) [Compound 619] | 100 to 1000 nM |
| CCN(c1nc(OC[C@@]23CCCN2C[C@H](F)C3)nc2c(F)c(-c3ccc(F)c4sc(N)c(C#N)c34)c(C(F)(F)F)cc12)[C@H]1CC(=O)N(C)C1 (atropisomer, axis not shown) [Compound 614] | 100 to 1000 nM |
| Cc1c(C(=O)N2CCCC2)nn2c1CN(c1nc(OCC34CCCN3CC(F)C4)nc3c(F)c(-c4ccc(F)c5sc(N)c(C#N)c45)c(C(F)(F)F)cc13)CC2 (stereo not shown) [Compound 744] | 100 to 1000 nM |
| C[C@@H]1[C@H](N(C)c2nc(OC[C@@]34CCCN3C[C@H](F)C4)nc3c(F)c(-c4ccc(F)c5sc(N)c(C#N)c45)c(C(F)(F)F)cc23)CCN1C(=O)C1CC1 (atropisomer, axis not shown) [Compound 333] | 100 to 1000 nM |
| CCN(c1nc(OC[C@@]23CCCN2C[C@H](F)C3)nc2c(F)c(-c3ccc(F)c4sc(N)c(C#N)c34)c(C(F)(F)F)cc12)[C@H]1CC(=O)N(CC(F)F)C1 (atropisomer, axis not shown) [Compound 613] | ≤ 100 nM |
| N#Cc1c(N)sc2c(F)ccc(-c3c(C(F)(F)F)cc4c(N(C5CC5)[C@H]5CCS(=O)(=O)C5)nc(OC[C@@]56CCCN5C[C@H](F)C6)nc4c3F)c12 [Compound 702] | > 10000 nM |
| C[C@H](c1cccnc1N)N(C)c1nc(OC[C@@]23CCCN2C[C@H](F)C3)nc2c(F)c(-c3ccc(F)c4sc(N)c(C#N)c34)c(C(F)(F)F)cc12 (atropisomer, axis not shown) [Compound 600] | ≤ 100 nM |
| Cc1c(C(=O)N2CCOCC2)nn2c1CN(c1nc(OCC34CCCN3CC(F)C4)nc3c(F)c(-c4ccc(F)c5sc(N)c(C#N)c45)c(C(F)(F)F)cc13)CC2 (stereo not shown) [Compound 741] | 100 to 1000 nM |
| CCN(c1nc(OC[C@@]23CCCN2C[C@H](F)C3)nc2c(F)c(-c3ccc(F)c4sc(N)c(C#N)c34)c(C(F)(F)F)cc12)[C@H]1C[C@@H]2CN(C)C(=O)N2C1 (atropisomer, axis not shown) [Compound 605] | 100 to 1000 nM |
| CCN1C[C@@H](N(C)c2nc(OC[C@@]34CCCN3C[C@H](F)C4)nc3c(F)c(-c4ccc(F)c5sc(N)c(C#N)c45)c(C(F)(F)F)cc23)CC1=O (atropisomer, axis not shown) [Compound 636] | 100 to 1000 nM |
| CCN(c1nc(OC[C@@H]2C[C@@H](OC)CN2C)nc2c(F)c(-c3ccc(F)c4sc(N)c(C#N)c34)c(C(F)(F)F)cc12)[C@H]1CCN(C(=O)C(C)C)C1 [Compound 706] | 1000 to 10000 nM |
| CCC(=O)N1CC[C@@H](N(C)c2nc(OC[C@@]34CCCN3C[C@H](F)C4)nc3c(F)c(-c4ccc(F)c5sc(N)c(C#N)c45)c(C(F)(F)F)cc23)[C@H]1C (atropisomer, axis not shown) [Compound 335] | 100 to 1000 nM |
| N#Cc1c(N)sc2c(F)ccc(-c3c(C(F)(F)F)cc4c(N5CCn6nc(C(=O)N7CCOCC7)cc6C5)nc(OCC56CCCN5CC(F)C6)nc4c3F)c12 (stereo not shown) [Compound 646] | 100 to 1000 nM |
| [2H]C1([2H])O[C@@H]2C[C@H]1N(c1nc(OC[C@@]34CCCN3C[C@H](F)C4)nc3c(F)c(-c4ccc(F)c5sc(N)c(C#N)c45)c(C(F)(F)F)cc13)C2 [Compound 371] | 1000 to 10000 nM |

Second part, the compound after the results:

| IC50 | SMILES |
| --- | --- |
| ≤ 100 nM | CCN(c1nc(OC[C@@]23CCCN2C[C@H](F)C3)nc2c(F)c(-c3ccc(F)c4sc(N)c(C#N)c34)c(C(F)(F)F)cc12)[C@H]1CCN(C(=O)C2CC2(F)F)C1 (stereo partly shown) [Compound 581] |
| 100 to 1000 nM | CCN(c1nc(OC[C@@]23CCCN2C[C@H](F)C3)nc2c(F)c(-c3ccc(F)c4sc(N)c(C#N)c34)c(C(F)(F)F)cc12)[C@H]1CCN(C(=O)[C@@H]2C[C@@H]2C)C1 (atropisomer, axis not shown) [Compound 689] |
| 100 to 1000 nM | CCN(c1nc(OC[C@@]23CCCN2C[C@H](F)C3)nc2c(F)c(-c3ccc(F)c4sc(N)c(C#N)c34)c(C(F)(F)F)cc12)[C@H]1CCN(C(=O)OC)C1 [Compound 394] |
| ≤ 100 nM | C=C(C)C(=O)N1CC[C@H](N(CC)c2nc(OC[C@@]34CCCN3C[C@H](F)C4)nc3c(F)c(-c4ccc(F)c5sc(N)c(C#N)c45)c(C(F)(F)F)cc23)C1 (atropisomer, axis not shown) [Compound 673] |
| ≤ 100 nM | CCN(c1nc(OC[C@@]23CCCN2C[C@H](F)C3)nc2c(F)c(-c3ccc(F)c4sc(N)c(C#N)c34)c(C(F)(F)F)cc12)[C@H]1C[C@H]2CCC(=O)N2C1 (atropisomer, axis not shown; (aR)) [Compound 573, 2-amino-4-((S)-4-(ethyl((2S,7aR)-5-oxohexahydro-1H-pyrrolizin-2-yl)amino)-8-fluoro-2-(((2R,7aS)-2-fluorotetrahydro-1H-pyrrolizin-7a(5H)-yl)methoxy)-6-(trifluoromethyl)quinazolin-7-yl)-7-fluorobenzo[b]thiophene-3-carbonitrile] |
| ≤ 100 nM | CCN(c1nc(OC[C@@]23CCCN2C[C@H](F)C3)nc2c(F)c(-c3ccc(F)c4sc(N)c(C#N)c34)c(C(F)(F)F)cc12)[C@H]1CCN(C(=O)CC(F)F)C1 (atropisomer, axis not shown) [Compound 611] |
| 1000 to 10000 nM | CCN(c1nc(OC[C@@]23CCCN2C[C@H](F)C3)nc2c(F)c(-c3ccc(F)c4sc(N)c(C#N)c34)c(C(F)(F)F)cc12)[C@@H]1CC(=O)N(C2CC2)C1 (atropisomer, axis not shown) [Compound 703] |
| 100 to 1000 nM | CCN(c1nc(OC[C@@]23CCCN2C[C@H](F)C3)nc2c(F)c(-c3ccc(F)c4sc(N)c(C#N)c34)c(C(F)(F)F)cc12)[C@H]1CCN(C(=O)c2ccns2)C1 (atropisomer, axis not shown) [Compound 726] |
| ≤ 100 nM | CCN(c1nc(OC[C@@]23CCCN2C[C@H](F)C3)nc2c(F)c(-c3ccc(F)c4sc(N)c(C#N)c34)c(C(F)(F)F)cc12)[C@H]1CCN(C(=O)O[C@@H]2CCOC2)C1 (atropisomer, axis not shown) [Compound 683] |
| 100 to 1000 nM | CC(=O)N1CC[C@H](N(CCF)c2nc(OC[C@@]34CCCN3C[C@H](F)C4)nc3c(F)c(-c4ccc(F)c5sc(N)c(C#N)c45)c(C(F)(F)F)cc23)C1 (atropisomer, axis not shown) [Compound 622] |
| 100 to 1000 nM | CC(=O)N1CC[C@H](N(c2nc(OC[C@@]34CCCN3C[C@H](F)C4)nc3c(F)c(-c4ccc(F)c5sc(N)c(C#N)c45)c(C(F)(F)F)cc23)C2CC2)C1 (atropisomer, axis not shown) [Compound 608] |
| ≤ 100 nM | CCN(c1nc(OC[C@@]23CCCN2C[C@H](F)C3)nc2c(F)c(-c3ccc(F)c4sc(N)c(C#N)c34)c(C(F)(F)F)cc12)[C@H]1CCN(C(=O)N2CC(OC)C2)C1 (atropisomer, axis not shown) [Compound 607] |
| ≤ 100 nM | CCN(c1nc(OC[C@@]23CCCN2C[C@H](F)C3)nc2c(F)c(-c3ccc(F)c4sc(N)c(C#N)c34)c(C(F)(F)F)cc12)[C@H]1CCN(C(=O)[C@@H]2CCO2)C1 (atropisomer, axis not shown) [Compound 603] |
| ≤ 100 nM | CCN(c1nc(OC[C@@]23CCCN2C[C@H](F)C3)nc2c(F)c(-c3ccc(F)c4sc(N)c(C#N)c34)c(C(F)(F)F)cc12)[C@H]1CCN(C(=O)[C@H]2CCO2)C1 (atropisomer, axis not shown) [Compound 577] |
| 100 to 1000 nM | CCN(c1nc(OC[C@@]23CCCN2C[C@H](F)C3)nc2c(F)c(-c3ccc(F)c4sc(N)c(C#N)c34)c(C(F)(F)F)cc12)[C@H]1C[C@@H](C)N(C(=O)[C@H]2CCO2)C1 (atropisomer, axis not shown) [Compound 752] |
| 100 to 1000 nM | CCN(c1nc(OC[C@]23CCCN2C[C@H](F)C3)nc2c(F)c(-c3ccc(F)c4sc(N)c(C#N)c34)c(C(F)(F)F)cc12)[C@H]1CCN(C(=O)C(C)C)C1 [Compound 705] |
| ≤ 100 nM | CCN(c1nc(OC[C@@]23CCCN2C[C@H](F)C3)nc2c(F)c(-c3ccc(F)c4sc(N)c(C#N)c34)c(C(F)(F)F)cc12)[C@H]1CCN(C(=O)C2CN(C(C)=O)C2)C1 (atropisomer, axis not shown) [Compound 638] |
| ≤ 100 nM | CCN(c1nc(OC[C@@]23CCCN2C[C@H](F)C3)nc2c(F)c(-c3ccc(F)c4sc(N)c(C#N)c34)c(C(F)(F)F)cc12)[C@H]1CCN(C(=O)C2C[C@@H]2F)C1 (stereo partly shown) [Compound 692] |
| ≤ 100 nM | CCN(c1nc(OC[C@@]23CCCN2C[C@H](F)C3)nc2c(F)c(-c3ccc(F)c4sc(N)c(C#N)c34)c(C(F)(F)F)cc12)[C@H]1CC(=O)N(C2CC2)C1 (atropisomer, axis not shown) [Compound 615] |
